Legend:
human DC = assay: Immunoblot of phosphorylation of signaling intermediates in human DC; format: cell-based
Method: FIGS. 2A to 2G are a series of pictures showing that a kinase activated pathway regulates antibody-induced antigen uptake by matured DC. Matured human monocyte-derived DC were treated with the MTAb B7-DC XAb for varying time periods and evaluated for the phosphorylation status of select signaling pathway intermediates by immunoprecipitation with DAP12 (MC457), Syk (4D10), and PLCγ1 (MC490) reactive antibodies followed by western blot analysis using the phosphotyrosine reactive antibody 4G10 as a probe (FIGS. 2A-2C). Samples of the cells blocked with indicated concentration of piceatannol (FIG. 2D) or with […] of piceatannol (FIG. 2E) were analyzed for phosphorylation of Syk (FIG. 2D) and PLCγ1 (FIG. 2E). To investigate the functional importance of these signaling intermediates in the regulation of antigen uptake by matured DC activated with B7-DC XAb, varying concentrations of pharmacologic inhibitors were used to block the activity of p72Syk (piceatannol) and PLCγ1 (U73122) (FIGS. 2F and 2G, respectively). Antigen uptake was assessed by pulsing cultures with FITC-conjugated ovalbumin and measuring intracellular fluorescence 16 hours later in CD11c positive cells by flow cytometry.
In experiments involving assessment of the phosphorylation status of various protein kinases using whole cell lysate, dendritic cells of mouse or human origin or Jurkat cells were stimulated at the indicated times with control antibody or B7-DC XAb, and were lysed on ice for 10 minutes in 1 ml buffer containing 20 mM Tris-HCl, 40 mM NaCl, 5 mM EDTA, 50 mM NaF, 30 mM Na4P2O7, 0.1% BSA, 1 mM Na3VO4, 1 mM PMSF, 5 μg/ml aprotinin, 10 μg/ml leupeptin, and 1% Triton X-100. Cellular debris was removed by centrifugation at 20,800×g for 5 minutes at 4° C. and the supernatant was used in SDS-PAGE analysis for phosphorylated tyrosine proteins. For immunoprecipitation, antibody against mouse Syk (4D10) or PLC yl (MC490) or DAP12 (MC457) at 10 μg per sample was bound to protein A-Sepharose beads at 4° C. for 2 hours under constant rotation. Supernatants from cell lysate after stimulation were incubated with antibody coupled beads for 2 hours at 4° C. with constant rotation. […] Tyrosine-phosphorylated proteins were detected using the anti-phosphotyrosine specific antibody, 4G10, followed by goat anti-mouse IgG coupled to Horse Radish Peroxidase (Santa Cruz Biotechnology) and the SuperSignal detection system (Pierce Biotechnology, Rockford, Ill.). […] The supernatants were resolved by SDS-PAGE, probed with anti-mouse TREM-2 antibody (237920) and detected by Goat-anti mouse antibody coupled to HRP, or probed with affinity purified anti-mouse CD40 (1C10) and detected by Goat-anti mouse antibody coupled to HRP.

mouse DC = assay: Co-immunoprecipitation with class II IA^b from mouse DC; format: cell-based
From the text: In FIG. 5A, the distribution of class II (labeled with APC-conjugated antibody) and CD80/CD86 molecules (labeled with PE-conjugated antibodies) was visualized by FRET following treatment of human monocyte derived DC with B7-DC XAb (open histograms) or with isotype control antibody (filled histograms). For FIG. 5B, mouse bone marrow derived DC were labeled, treated, and analyzed as in FIG. 5A. FIG. 5C indicates the inability of the IA^b specific IgM antibody 25-9-3 (open dark histograms), B7-DC XAb (open light histograms), and isotype control antibody treated samples (filled histograms) to induce FRET (top left and middle panels). Binding of the class II specific IgM antibody to the mouse DC analyzed is shown (top right panel). FIG. 5D indicates the ability of B7-DC-specific IgG antibody (open histograms on left of each panel) or no IgG antibody (open histograms on right of each panel) to inhibit FRET induced by the MTAb B7-DC XAb. Absence of FRET induced by Isotype control antibody is shown in reference (filled histograms). For FIGS. 5E and 5F, immunoprecipitates of membrane proteins from B7-DC XAb or control antibody treated DC were isolated using biotin tagged IA^b-specific KH74 antibody. The precipitates were analyzed by Western blot using mouse-specific TREM-2 and CD40 antibodies as probes. […]

[1] = tested on: CD11c+ draining lymph node cells; assay: In vivo antigen uptake by CD11c+ draining lymph node cells; parameters: species or system mouse; conditions: systemic antibody
Method: FIG. 7A is a pair of pictures of western blot analysis for phosphorylation of DAP12 and Syk in B7-DC XAb or control antibody-treated mouse DC, as indicated. FIG. 7B is a graph plotting percent CD11c+ inguinal lymph node cells in mice after OVA-FITC was introduced into the footpads of mice treated systemically with isotype control antibody or the MTAb B7-DC XAb (n=3/group). Cells were analyzed by flow cytometry 24 hours after OVA-FITC introduction.
Antigen uptake experiments were carried out as described previously (Radhakrishnan et al. (2005) Proc. Natl. Acad. Sci. U.S.A. 102:11438-11443). Day 5 DC were matured with TLR ligand CpG-ODN for mouse DC, or with pI:C for human DC. The matured cells were incubated with ovalbumin labeled with FITC or APC and control antibody or B7-DC XAb for two hours, washed and analyzed by FACSCALIBUR™ (Becton Dickinson). In studies involving inhibitors, cells were pretreated 30 minutes as indicated or at 10 μM concentration prior to addition of control antibody or B7-DC XAb. In vivo antigen uptake assays involving wild type or TREM-2−/− mice were carried out by intravenous injection of 10 μg of control antibody or B7-DC XAb on three consecutive days (days −1, 0 and +1). Ovalbumin coupled to FITC was injected in the right foot pad at 1 mg/ml in PBS at 100 μA volume. […] The data are expressed as percent green cells (ovalbumin-FITC) that are positive for CD11c.

B7-DC (PD-L2) = conditions: cited from earlier work

With “B7-DC XAb: human monoclonal IgM from a Waldenstrom's macroglobulinemia patient that binds and cross-links B7-DC on DC” the “phosphorylation of PLCγ1” value (human DC; human DC) was “concomitant with the phosphorylation of PLCγ1”, the “phosphorylation of cellular proteins” value (human DC; human DC treated with antibody) was “induced as early as one minute after treatment” and the “phosphorylation of DAP12” value (human DC; human DC, cross-linking B7-DC) was “rapidly phosphorylated”. For the same substance, the “phosphorylation of Syk” value (human DC; human DC, immunoprecipitated Syk) was “revealed phosphorylation of the protein tyrosine kinase”, the “association of TREM-2 with class II IA^b by co-immunoprecipitation” value (mouse DC; lysates 5 minutes after treatment) was “co-immunoprecipitation of TREM-2 with the class II molecule IA^b” and the “recruitment of CD40 to the cap, co-precipitation with class II” value (mouse DC; mouse DC) was “co-precipitation with class II molecules”. For the same substance, the “uptake of labeled ovalbumin by CD11c+ lymph node cells” value ([1]; TREM-2 KO mice) was “had no effect on uptake”, the “uptake of labeled ovalbumin in lymph nodes” value ([1]; wild type mice) was “significantly activated uptake of labeled ovalbumin” and the “binding to B7-DC on the surface of DC” value (B7-DC (PD-L2)) was “binds”.

Source: patent US11274131B2, “IgM-mediated receptor clustering and cell modulation” (MAYO FOUNDATION FOR MEDICAL EDUCATION AND RESEARCH, priority 2007, dated 2022)
